Consider two molecules from ChEMBL document CHEMBL2074339, “The use of a dendrimer-propranolol prodrug to bypass efflux transporters and enhance oral bioavailability” (J Control Release, 2004).

The target in data set [1] is T1, ATP-dependent translocase ABCB1 (Homo sapiens, UniProt P08183). Put plainly: TP_TRANSPORTER: transepithelial transport in Caco2 cells. The data set is classed as functional, cell-based. The following applies: caco-2.
Data set [2] has as its target T1, ATP-dependent translocase ABCB1. Put plainly: TP_TRANSPORTER: transepithelial transport of propranolol in Caco2 cells. It counts as functional, cell-based. As to conditions: caco-2.

T1 sequence (P08183 whole entry): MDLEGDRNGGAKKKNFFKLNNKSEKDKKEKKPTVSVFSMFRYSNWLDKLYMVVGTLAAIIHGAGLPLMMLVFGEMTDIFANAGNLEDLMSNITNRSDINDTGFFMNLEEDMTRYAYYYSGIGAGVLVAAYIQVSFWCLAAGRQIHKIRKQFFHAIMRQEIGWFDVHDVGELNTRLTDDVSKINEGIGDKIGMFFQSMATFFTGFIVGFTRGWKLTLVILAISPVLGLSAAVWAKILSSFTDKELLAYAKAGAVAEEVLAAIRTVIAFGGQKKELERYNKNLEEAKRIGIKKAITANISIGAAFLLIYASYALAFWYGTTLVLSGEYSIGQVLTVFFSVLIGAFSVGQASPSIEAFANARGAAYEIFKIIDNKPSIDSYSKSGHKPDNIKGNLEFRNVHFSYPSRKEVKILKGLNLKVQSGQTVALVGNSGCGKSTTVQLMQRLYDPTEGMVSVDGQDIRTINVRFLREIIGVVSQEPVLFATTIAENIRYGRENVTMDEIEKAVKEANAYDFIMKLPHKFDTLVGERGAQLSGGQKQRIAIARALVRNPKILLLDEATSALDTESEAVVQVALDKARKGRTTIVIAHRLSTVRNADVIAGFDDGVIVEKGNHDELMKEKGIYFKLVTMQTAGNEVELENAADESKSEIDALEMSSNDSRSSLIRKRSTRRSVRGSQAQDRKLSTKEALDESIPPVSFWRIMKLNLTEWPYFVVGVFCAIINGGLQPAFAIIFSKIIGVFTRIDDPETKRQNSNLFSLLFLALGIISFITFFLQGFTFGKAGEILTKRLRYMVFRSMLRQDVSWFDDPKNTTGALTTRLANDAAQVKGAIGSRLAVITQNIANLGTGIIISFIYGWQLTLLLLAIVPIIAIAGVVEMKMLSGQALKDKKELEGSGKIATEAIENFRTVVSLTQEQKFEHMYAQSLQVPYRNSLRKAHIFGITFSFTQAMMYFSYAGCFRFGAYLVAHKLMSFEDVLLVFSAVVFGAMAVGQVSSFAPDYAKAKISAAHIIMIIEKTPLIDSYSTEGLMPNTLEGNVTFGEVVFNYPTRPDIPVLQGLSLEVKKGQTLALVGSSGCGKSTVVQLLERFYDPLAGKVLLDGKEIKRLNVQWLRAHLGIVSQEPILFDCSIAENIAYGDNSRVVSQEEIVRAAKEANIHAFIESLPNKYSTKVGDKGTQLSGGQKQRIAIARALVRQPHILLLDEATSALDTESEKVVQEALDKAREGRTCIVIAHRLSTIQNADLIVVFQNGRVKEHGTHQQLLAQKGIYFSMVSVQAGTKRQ

On to `CC(C)NCC(O)COc1cccc2ccccc12` (configuration not stated) [PROPRANOLOL], for which, in data set [1], the Activity entry was “substrate [+]”.

As for G3 PAMAM DENDRIMER, the Activity result in data set [2] was “is not an inhibitor [-]”.
